Experimental data taken from ChEMBL document CHEMBL1134891, “Design and synthesis of conformationally restricted eight-Membered ring diketones as potential serine protease inhibitors” (Bioorg Med Chem Lett, 2002).

Experiments:
[1] = target: Plasminogen (Homo sapiens) (UniProt P00747); assay: Compound was tested for percentage inhibition of plasmin in enzyme rate assays; conditions: concentration not given here
[2] = target: Urokinase-type plasminogen activator (Homo sapiens) (UniProt P00749); assay: Compound was tested for percentage inhibition of urokinase in enzyme rate assays; conditions: concentration not given here
[3] = target: Urokinase-type plasminogen activator (Homo sapiens) (UniProt P00749); assay: Compound was tested for percentage inhibition of urokinase in enzyme rate assays; NI denotes no significant inhibition at 100 uM
[4] = target: Plasminogen (Homo sapiens) (UniProt P00747); assay: Compound was tested for percentage inhibition of plasmin in enzyme rate assays; NI denotes no significant inhibition at 100 uM

Chain of Plasminogen (Homo sapiens) (P00747 97-580 limits assumed): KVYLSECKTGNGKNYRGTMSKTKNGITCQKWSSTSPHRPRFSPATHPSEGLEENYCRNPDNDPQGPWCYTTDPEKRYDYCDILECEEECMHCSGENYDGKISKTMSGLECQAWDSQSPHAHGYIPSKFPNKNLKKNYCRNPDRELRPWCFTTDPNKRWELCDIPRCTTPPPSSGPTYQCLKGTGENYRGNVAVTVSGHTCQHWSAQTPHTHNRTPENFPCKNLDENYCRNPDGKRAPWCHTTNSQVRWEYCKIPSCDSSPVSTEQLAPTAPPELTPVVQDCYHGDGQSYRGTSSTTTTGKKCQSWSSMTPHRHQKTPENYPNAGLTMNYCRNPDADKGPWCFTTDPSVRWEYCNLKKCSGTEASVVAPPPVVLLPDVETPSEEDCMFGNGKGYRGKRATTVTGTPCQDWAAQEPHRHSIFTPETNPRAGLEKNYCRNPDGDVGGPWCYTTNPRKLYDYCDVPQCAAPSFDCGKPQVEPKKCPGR
Chain of Plasminogen (Homo sapiens) (P00747 581-810 limits assumed): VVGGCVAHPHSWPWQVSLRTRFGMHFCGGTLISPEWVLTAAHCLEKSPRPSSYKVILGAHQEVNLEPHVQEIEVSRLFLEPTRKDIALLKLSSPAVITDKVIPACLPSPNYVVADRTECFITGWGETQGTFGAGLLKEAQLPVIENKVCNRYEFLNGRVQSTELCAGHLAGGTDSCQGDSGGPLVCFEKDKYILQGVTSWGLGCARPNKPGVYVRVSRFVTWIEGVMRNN

inhibition [1]	inhibition [2]	inhibition [3]	inhibition [4]	SMILES
25%	28%			CC(=O)N[C@]1(C)CC[C@]2(C)[C@H](C)CC[C@]3(CCC(=O)[C@H]32)C(=O)C1=O
		No inhibition	No inhibition	CC[C@]1(C)CC[C@]2(C)[C@H](C)CC[C@]3(CCC(=O)[C@H]32)C(=O)C1=O
